Test results as given in patent US20240270821A1, “GIP/GLP1/GCG TRI-RECEPTOR AGONISTS AND USES THEREOF” (priority 2023, published 2024).
Starred links: 1 amine or outer side, 2 acyl side, 3 side chain; linkers in the order of their positions; H or OH if unused. Non-standard residues stand in square brackets, D forms with d. Groups on a side chain read outwards from the residue. No end group written: not given here. *: point of attachment. C20 diacid = O=C(O)CCCCCCCCCCCCCCCCCCC(=O)*; C18 diacid = O=C(O)CCCCCCCCCCCCCCCCC(=O)*; γGlu = O=C(O)[C@H](CCC(=O)[*:2])N[*:1]; αMe4Pal = C[C@](N)(Cc1ccncc1)C(=O)O; αMeY = C[C@](N)(Cc1ccc(O)cc1)C(=O)O; 4Pal = N[C@@H](Cc1ccncc1)C(=O)O; αMeL = CC(C)C[C@](C)(N)C(=O)O; Orn = NCCC[C@H](N)C(=O)O; Dab = NCC[C@H](N)C(=O)O; AEEA = NCCOCCOCC(=O)O; Aib = CC(C)(N)C(=O)O

Legend:
Type in all cases: cell-based
human GcgR = human GcgR (Homo sapiens, UniProt P47871); experiment: Functional cAMP activity in the presence of 1% HSA; settings: read-out: cAMP Rel EC50, hGcgR
hGIPR [1] = molecular target: T1, hGIPR (Homo sapiens, UniProt P48546); experiment: Functional cAMP activity in the presence of 1% HSA; settings: read-out: cAMP Rel EC50, hGIPR
T1 sequence (P48546 22-466): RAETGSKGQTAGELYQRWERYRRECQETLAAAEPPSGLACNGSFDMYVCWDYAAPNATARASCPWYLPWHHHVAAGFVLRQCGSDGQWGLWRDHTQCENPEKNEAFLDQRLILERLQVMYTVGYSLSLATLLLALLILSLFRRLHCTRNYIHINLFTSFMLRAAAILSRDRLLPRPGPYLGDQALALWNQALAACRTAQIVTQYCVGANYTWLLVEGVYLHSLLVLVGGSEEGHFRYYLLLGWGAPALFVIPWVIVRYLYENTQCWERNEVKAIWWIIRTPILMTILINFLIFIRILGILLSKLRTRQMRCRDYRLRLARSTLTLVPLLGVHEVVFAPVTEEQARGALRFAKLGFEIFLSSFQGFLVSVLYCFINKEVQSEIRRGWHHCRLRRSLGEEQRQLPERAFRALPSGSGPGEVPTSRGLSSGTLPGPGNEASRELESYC

hGLP-1R [2] = molecular target: T2, hGLP-1R (Homo sapiens, UniProt P43220); experiment: Functional cAMP activation in the presence of 0.1% casein (no HSA); settings: in the presence of 0.1% casein (no HSA); geometric mean; read-out: Relative cAMP EC50, hGLP-1R;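 note: intracellular cAMP rise after 30 min at 37 °C read by HTRF, normalized between buffer only (0%) and maximal control ligand (100%), four-parameter variable-slope fit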
hGcgR = hGcgR (Homo sapiens, UniProt P47871); experiment: as above; settings: in the presence of 0.1% casein (no HSA); geometric mean; read-out: Relative cAMP EC50, hGcgR;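 note: intracellular cAMP rise after 30 min at 37 °C, read by HTRF against a cAMP standard curve, scaled from buffer only (0%) to maximal control ligand response (100%)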
hGLP-1R [3] = molecular target: T2, hGLP-1R; experiment: Functional cAMP activity in the presence of 1% HSA; settings: read-out: cAMP Rel EC50, hGLP-1R
human GLP1-R = human GLP1-R (Homo sapiens, UniProt P43220); experiment: GLP1-R internalization assay in HEK293 cells; settings: for EC50: HEK293 cells expressing SNAP-GLP-1R, read-out: GLP1R Internalization EC50; for Internalization % TOP: normalized to maximum concentration of GLP-1 (100%)
hGIPR [4] = molecular target: T1, hGIPR; experiment: Functional cAMP activation in the presence of 0.1% casein (no HSA); settings: in the presence of 0.1% casein (no HSA); geometric mean; read-out: Relative cAMP EC50, hGIPR;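 for Relative cAMP EC50, hGIPR: intracellular cAMP rise after 30 min at 37 °C read by HTRF against a standard curve, scaled between buffer alone (0%) and top control ligand concentration (100%), four-parameter fit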;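 for Relative cAMP EC50, hGcgR: intracellular cAMP rise after 30 min at 37 °C, read by HTRF against a cAMP standard curve, scaled from buffer only (0%) to maximal control ligand response (100%)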

hGcgR, sequence (P47871 26-477): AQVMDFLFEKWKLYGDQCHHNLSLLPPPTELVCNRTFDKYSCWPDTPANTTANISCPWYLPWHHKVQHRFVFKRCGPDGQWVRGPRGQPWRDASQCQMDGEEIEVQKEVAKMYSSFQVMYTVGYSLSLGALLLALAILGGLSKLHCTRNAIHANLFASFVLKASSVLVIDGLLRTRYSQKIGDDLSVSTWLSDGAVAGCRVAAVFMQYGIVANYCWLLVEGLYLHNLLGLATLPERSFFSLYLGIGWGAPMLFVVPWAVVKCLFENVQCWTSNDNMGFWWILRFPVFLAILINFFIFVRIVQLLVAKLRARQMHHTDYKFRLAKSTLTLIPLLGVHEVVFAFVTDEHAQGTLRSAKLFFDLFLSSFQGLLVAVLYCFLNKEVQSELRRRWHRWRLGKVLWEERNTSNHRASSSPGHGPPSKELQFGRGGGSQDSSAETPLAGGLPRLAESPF
human GcgR, sequence (P47871 26-477): as above
T2 sequence (P43220 24-463): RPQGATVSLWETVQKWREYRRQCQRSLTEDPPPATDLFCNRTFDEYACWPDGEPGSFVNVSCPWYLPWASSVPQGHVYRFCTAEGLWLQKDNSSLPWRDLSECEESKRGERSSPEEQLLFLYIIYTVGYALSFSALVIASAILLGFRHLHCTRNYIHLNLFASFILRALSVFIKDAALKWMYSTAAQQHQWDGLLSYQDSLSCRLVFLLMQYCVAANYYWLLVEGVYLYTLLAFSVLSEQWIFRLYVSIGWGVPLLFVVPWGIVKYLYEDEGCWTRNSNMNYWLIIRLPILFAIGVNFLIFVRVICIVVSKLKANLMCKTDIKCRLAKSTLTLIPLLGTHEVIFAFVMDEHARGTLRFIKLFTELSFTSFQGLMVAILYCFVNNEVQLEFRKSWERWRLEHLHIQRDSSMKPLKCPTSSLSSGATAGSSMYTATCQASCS
human GLP1-R, sequence (P43220 24-463): as above

Compound	EC50 (human GcgR) [nM]	EC50 (hGIPR [1]) [nM]	EC50 (hGLP-1R [2]) [nM]	EC50 (hGcgR) [nM]	EC50 (hGLP-1R [3]) [nM]	EC50 (human GLP1-R) [nM]	Internalization % TOP (human GLP1-R) [%]	EC50 (hGIPR [4]) [nM]
H-Y[Aib]QGTFTSDFS[Orn][αMeL]LDKK([AEEA-AEEA-γGlu-C18 diacid])AQ[Aib]AFIEYLLEGGPSSGAPPPSGE-NH2 [Example 107]	1690	61.3	8.5	10.8	1110	150	45.1	0.426
H-Y[Aib]QGTFTSDFS[Orn][αMeL]LDKK([AEEA-γGlu-C18 diacid])AQ[Aib]AFIEYLLAGGPSSGAPPPSGS-NH2 [Example 95]	1130	18.2	1.95	8.41	380	37.8	49.3	0.116
Y[Aib]QGTFTSDFS[Dab][αMeL]LDKK([AEEA-γGlu-C18 diacid])AQ[Aib]AFIEYLLEGGPSSGAPPPGGS-NH2 [Example 67]	781	73.3	4.07	3.7	683	50.9	31.1	0.34
H-Y[Aib]QGTFTSDFS[Orn][αMeL]LDKK([AEEA-γGlu-C18 diacid])AQ[Aib]AFIEYLLEGGHSSGAPPPGGS-NH2 [Example 162]	558	37.5	4.72	4.72	786	48.8	44.8	0.222
H-Y[Aib]QGTFTSDYSK[αMeL]LDKK([AEEA-γGlu-C18 diacid])AQ[Aib]AFIEYLLEGGESSGAPPPSGS-NH2 [Example 358]	876	38.8	2.31	2.78	492	21.5	83.1	0.182
Y[Aib]QGTFTSD[4Pal]SQ[αMeL]LD[Orn]K([γGlu-γGlu-C18 diacid])AQ[αMe4Pal]QFIE[αMeY]LIEGGPSSGEPPPSGSEE-NH2 [Example 1026]	2080	61.3	1.77	6.32	299	47.4	80	0.308
H-Y[Aib]QGTFTSDFS[Orn][αMeL]LDKK([AEEA-γGlu-C18 diacid])AQ[αMe4Pal]AFIEYLIE[Aib]GESSGAPPPSGE-NH2 [Example 228]	322	37.8	1.52	1.38	311	39	35	0.147
H-Y[Aib]QGTFTSDFS[Orn][αMeL]LDKK([AEEA-AEEA-γGlu-C18 diacid])AQ[Aib]AFIEYLLEGGPSSGAPPPGES-NH2 [Example 118]	2460	63.4	6.03	7.02	1450	82.3	46.4	0.43
H-Y[Aib]QGTFTSDFSK[αMeL]LDKK([AEEA-γGlu-C20 diacid])AQ[Aib]AFIEYLLAGGPSSGAPPPGGE-NH2 [Example 15]	1980	36.3	1.77	11.1	276	79	74.9	0.201
Y[Aib]QGTFTSDFSK[αMeL]LDKK([AEEA-γGlu-C18 diacid])AQ[Aib]AFIEYLLEGGPSSGAPPPSEG-NH2 [Example 48]	728	46.9	2.99	3.8	570	44	55.2	0.27
H-Y[Aib]QGTFTSDFS[Orn][αMeL]LDKK([AEEA-AEEA-γGlu-C18 diacid])AQ[Aib]AFIEYLLE[dA]GPSSGEPPPSGQ-NH2 [Example 157]	838	22.2	3.04	4.16	496	60.3	53.3	0.183
CC[C@H](C)[C@H](NC(=O)[C@H](Cc1ccccc1)NC(=O)[C@H](C)NC(=O)C(C)(C)NC(=O)[C@H](CCC(N)=O)NC(=O)[C@H](C)NC(=O)[C@H](CCCCNC(=O)COCCOCCNC(=O)COCCOCCNC(=O)CC[C@H](NC(=O)CCCCCCCCCCCCCCCCC(=O)O)C(=O)O)NC(=O)[C@H](CCCCN)NC(=O)[C@H](CC(=O)O)NC(=O)[C@H](CC(C)C)NC(=O)[C@](C)(CC(C)C)NC(=O)[C@H](CCCN)NC(=O)[C@H](CO)NC(=O)[C@H](Cc1ccccc1)NC(=O)[C@H](CC(=O)O)NC(=O)[C@H](CO)NC(=O)[C@@H](NC(=O)[C@H](Cc1ccccc1)NC(=O)[C@@H](NC(=O)CNC(=O)[C@H](CCC(N)=O)NC(=O)C(C)(C)NC(=O)[C@@H](N)Cc1ccc(O)cc1)[C@@H](C)O)[C@@H](C)O)C(=O)N[C@@H](CCC(=O)O)C(=O)N[C@@H](Cc1ccc(O)cc1)C(=O)N[C@@H](CC(C)C)C(=O)N[C@@H](CC(C)C)C(=O)N[C@@H](CCC(=O)O)C(=O)NC(C)(C)C(=O)NCC(=O)N[C@@H](CCC(=O)O)C(=O)N[C@@H](CO)C(=O)N[C@@H](CO)C(=O)NCC(=O)N[C@@H](C)C(=O)N1CCC[C@H]1C(=O)N1CCC[C@H]1C(=O)N1CCC[C@H]1C(=O)N[C@@H](CO)C(=O)NCC(=O)N[C@@H](CCC(=O)O)C(N)=O [Example 185]	504	21.1	5.46	3.5	502	144	43.7	0.123
H-Y[Aib]QGTFTSDFS[Orn][αMeL]LDKK([AEEA-γGlu-C18 diacid])AQ[Aib]AFIEYLLEGGHSSGEPPPGGS-NH2 [Example 164]	411	59	5.02	2.92	962	45.9	46.5	0.302
H-Y[Aib]QGTFTSDFS[Orn][αMeL]LDKK([AEEA-γGlu-γGlu-C18 diacid])AQ[Aib]AFIEYLLE[Aib]GPSSGAPPPSG[4Pal]-NH2 [Example 279]	427	11.6	5.77	5.06	367	115	37.5	0.105
H-Y[Aib]QGTFTSDFS[Orn][αMeL]LDKK([AEEA-γGlu-C18 diacid])AQ[Aib]AFIEWLLEGGTSSGAPPPSGS-NH2 [Example 176]	461	40.7	2.92	4.1	389	103	48	0.212
H-Y[Aib]QGTFTSDFS[Orn][αMeL]LDKK([AEEA-γGlu-γGlu-C18 diacid])AQ[Aib]AFIEYLLE[Aib]GPSSGAPPPSGT-NH2 [Example 278]	274	7.69	4.11	4.45	241	251	68.6	0.0963
CC[C@H](C)[C@H](NC(=O)[C@H](Cc1ccccc1)NC(=O)[C@H](C)NC(=O)C(C)(C)NC(=O)[C@H](CCC(N)=O)NC(=O)[C@H](C)NC(=O)[C@H](CCCCNC(=O)COCCOCCNC(=O)CC[C@H](NC(=O)CCCCCCCCCCCCCCCCC(=O)O)C(=O)O)NC(=O)[C@H](CCCCN)NC(=O)[C@H](CC(=O)O)NC(=O)[C@H](CC(C)C)NC(=O)[C@](C)(CC(C)C)NC(=O)[C@H](CCCN)NC(=O)[C@H](CO)NC(=O)[C@H](Cc1ccncc1)NC(=O)[C@H](CC(=O)O)NC(=O)[C@H](CO)NC(=O)[C@@H](NC(=O)[C@H](Cc1ccccc1)NC(=O)[C@@H](NC(=O)CNC(=O)[C@H](CCC(N)=O)NC(=O)C(C)(C)NC(=O)[C@@H](N)Cc1ccc(O)cc1)[C@@H](C)O)[C@@H](C)O)C(=O)N[C@@H](CCC(=O)O)C(=O)N[C@@H](Cc1ccc(O)cc1)C(=O)N[C@@H](CC(C)C)C(=O)N[C@@H](CC(C)C)C(=O)N[C@@H](C)C(=O)NCC(=O)NCC(=O)N1CCC[C@H]1C(=O)N[C@@H](CO)C(=O)N[C@@H](CO)C(=O)NCC(=O)N[C@@H](C)C(=O)N1CCC[C@H]1C(=O)N1CCC[C@H]1C(=O)N1CCC[C@H]1C(=O)N[C@@H](CO)C(=O)NCC(=O)N[C@@H](CCC(=O)O)C(N)=O [Example 112]	1810	–	5.77	11	892	30.1	59.1	0.233
